target: T1, HDAC6 (Homo sapiens, UniProt Q9UBN7); test: In vitro Histone Deacetylase Assay (enzymatic HDAC6 electrophoretic mobility shift assay); type: biochemical; settings: full length human recombinant HDAC6, 1 nM enzyme, 2 μM peptide substrate RHKK(Ac)-NH2, 25° C.; read-out: HDAC6 activity range
T1 construct: Full length human recombinant HDAC6 protein was expressed in baculoviral system; made in house; host or cells: baculoviral system
T1 sequence (Q9UBN7 1-1215): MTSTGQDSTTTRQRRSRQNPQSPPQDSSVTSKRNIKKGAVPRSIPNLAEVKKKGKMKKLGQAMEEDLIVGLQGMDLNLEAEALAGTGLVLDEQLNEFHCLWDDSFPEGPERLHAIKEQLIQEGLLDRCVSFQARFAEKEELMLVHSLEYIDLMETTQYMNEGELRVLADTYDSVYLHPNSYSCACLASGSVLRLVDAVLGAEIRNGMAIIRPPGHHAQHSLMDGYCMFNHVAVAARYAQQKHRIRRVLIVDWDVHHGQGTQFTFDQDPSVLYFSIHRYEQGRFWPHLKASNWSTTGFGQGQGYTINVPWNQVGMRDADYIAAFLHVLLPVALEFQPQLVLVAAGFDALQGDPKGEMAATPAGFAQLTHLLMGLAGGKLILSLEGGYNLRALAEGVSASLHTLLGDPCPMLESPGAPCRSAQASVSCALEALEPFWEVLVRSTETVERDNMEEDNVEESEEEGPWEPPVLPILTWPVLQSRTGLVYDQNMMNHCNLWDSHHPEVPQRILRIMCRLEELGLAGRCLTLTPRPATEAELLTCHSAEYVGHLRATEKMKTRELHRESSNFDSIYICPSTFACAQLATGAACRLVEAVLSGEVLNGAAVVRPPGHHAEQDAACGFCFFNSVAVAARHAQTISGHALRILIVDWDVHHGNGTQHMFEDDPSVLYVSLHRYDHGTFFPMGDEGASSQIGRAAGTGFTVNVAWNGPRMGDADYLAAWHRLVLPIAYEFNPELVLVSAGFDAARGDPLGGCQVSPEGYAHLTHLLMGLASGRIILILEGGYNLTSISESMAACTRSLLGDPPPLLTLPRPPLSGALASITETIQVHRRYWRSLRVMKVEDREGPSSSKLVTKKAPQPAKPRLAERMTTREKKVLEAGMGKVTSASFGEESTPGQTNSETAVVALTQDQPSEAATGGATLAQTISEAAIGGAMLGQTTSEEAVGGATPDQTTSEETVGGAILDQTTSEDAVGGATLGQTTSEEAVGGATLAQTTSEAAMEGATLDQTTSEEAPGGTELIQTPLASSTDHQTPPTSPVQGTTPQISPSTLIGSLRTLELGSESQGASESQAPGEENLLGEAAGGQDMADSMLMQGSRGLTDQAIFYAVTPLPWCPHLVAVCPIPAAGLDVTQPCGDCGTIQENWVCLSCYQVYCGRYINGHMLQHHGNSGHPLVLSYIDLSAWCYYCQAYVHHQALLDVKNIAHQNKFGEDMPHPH
How it was run: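 Deacetylation was read by microfluidic mobility shift as product/(substrate+product) peak ratio and normalised to 0% and 100% inhibition controls. Reactions used 1 nM baculovirus-expressed full-length human HDAC6 and 2 μM labelled RHKK(Ac)-NH2 in pH 7.5 HEPES buffer with 1% DMSO at 25 °C. IC50 was from 4-parameter fits of 12 concentrations.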

SMILES	IC50
O=C(NO)c1ccc2c(c1)CCC1(CC(=O)N(c3cccnc3)C1)C2 (single isomer, unassigned) [Compound I-224]	≤ 100 nM
O=C(NO)c1ccc2c(c1)CC[C@@]1(CCNC1=O)C2 [Compound I-28, (S)-N-hydroxy-2′-oxo-3,4-dihydro-1H-spiro[naphthalene-2,3′-pyrrolidine]-6-carboxamide]	≤ 100 nM
COCCN1CC[C@]2(CCc3cc(C(=O)NO)ccc3C2)C1=O [Compound I-36, (R )-N-hydroxy-1′-(2-methoxyethyl)-2′-oxo-3,4-dihydro-1H-spiro[naphthalene-2,3′-pyrrolidine]-6-carboxamide]	≤ 100 nM
CC(C)CCN1CC[C@]2(CCc3cc(C(=O)NO)ccc3C2)C1=O [Compound I-34]	≤ 100 nM
COc1ccccc1CN1CC[C@@]2(CCc3cc(C(=O)NO)ccc3C2)C1=O [Compound I-72, (S)-N-hydroxy-1′-(2-methoxybenzyl)-2′-oxo-3,4-dihydro-1H-spiro[naphthalene-2,3′-pyrrolidine]-6-carboxamide]	≤ 100 nM
O=C(NO)c1ccc2c(c1)CCC1(CCN(Cc3nc4ccccc4[nH]3)C1)C2 (stereo not shown) [Compound I-1, 1′-((1H-benzo[d]imidazol-2-yl)methyl)-N-hydroxy-3,4-dihydro-1H-spiro[naphthalene-2,3′-pyrrolidine]-6-carboxamide]	≤ 100 nM
CC#CCN1CC[C@@]2(CCc3cc(C(=O)NO)ccc3C2)C1=O [Compound I-63, (S)-1′-(but-2-yn-1-yl)-N-hydroxy-2′-oxo-3,4-dihydro-1H-spiro[naphthalene-2,3′-pyrrolidine]-6-carboxamide]	≤ 100 nM
O=C(NO)c1ccc2c(c1)CC[C@]1(CCN(CC(=O)N3CCOCC3)C1=O)C2 [Compound I-43, (R)-N-hydroxy-1′-(2-morpholino-2-oxoethyl)-2′-oxo-3,4-dihydro-1H-spiro[naphthalene-2,3′-pyrrolidine]-6-carboxamide]	≤ 100 nM
CC(C)CN1CCCC2(CCc3cc(C(=O)NO)ccc3C2)C1=O (single isomer, unassigned) [Compound I-190]	≤ 100 nM
CC(C)(C)Nc1cc(N2CC[C@]3(CCc4cc(C(=O)NO)ccc4C3)C2=O)ncn1 [Compound I-97, (R)-1′-(6-(tert-butylamino)pyrimidin-4-yl)-N-hydroxy-2′-oxo-3,4-dihydro-1H-spiro[naphthalene-2,3′-pyrrolidine]-6-carboxamide]	≤ 100 nM
O=C(NO)c1ccc2c(c1)CC[C@]1(CCN(c3cncc(Cl)c3)C1=O)C2 [Compound I-139, (R)-1′-(5-chloropyridin-3-yl)-N-hydroxy-2′-oxo-3,4-dihydro-1H-spiro[naphthalene-2,3′-pyrrolidine]-6-carboxamide]	≤ 100 nM
O=C(NO)c1ccc2c(c1)CC[C@]1(CCN(c3cncc(F)c3)C1=O)C2 [Compound I-110, (R)-1′-(5-fluoropyridin-3-yl)-N-hydroxy-2′-oxo-3,4-dihydro-1H-spiro[naphthalene-2,3′-pyrrolidine]-6-carboxamide]	≤ 100 nM
CCN1CC2(CCc3cc(C(=O)NO)ccc3C2)CC1=O (single isomer, unassigned) [Compound I-211]	≤ 100 nM
O=C(NO)c1ccc2c(c1)CC[C@]1(CCN(c3ccccc3)C1=O)C2 [Compound I-26, (R)-N-hydroxy-2′-oxo-1′-phenyl-3,4-dihydro-1H-spiro[naphthalene-2,3′-pyrrolidine]-6-carboxamide]	≤ 100 nM
COc1cccc(N2CC[C@@]3(CCc4cc(C(=O)NO)ccc4C3)C2=O)c1F [Compound I-126, (2S)-1′-(2-fluoro-3-methoxyphenyl)-N-hydroxy-2′-oxo-3,4-dihydro-1H-spiro[naphthalene-2,3′-pyrrolidine]-6-carboxamide]	≤ 100 nM
O=C(NO)c1ccc2c(c1)CC[C@]1(CCN(C/C=C/c3ccccc3)C1=O)C2 [Compound I-37, (R)-1′-cinnamyl-N-hydroxy-2′-oxo-3,4-dihydro-1H-spiro[naphthalene-2,3′-pyrrolidine]-6-carboxamide]	≤ 100 nM

SMILES	IC50
O=C(NO)c1ccc2c(c1)CC[C@]1(CCN(c3ccc4nccn4c3)C1=O)C2 [Compound I-99, (R)-N-hydroxy-1′-(imidazo[1,2-a]pyridin-6-yl)-2′-oxo-3,4-dihydro-1H-spiro[naphthalene-2,3′-pyrrolidine]-6-carboxamide]	≤ 100 nM
O=C(NO)c1ccc2c(c1)CCC1(CCN(C3CCCCC3)CC1)O2 [II-8, 1′-cyclohexyl-N-hydroxyspiro[chromane-2,4′-piperidine]-6-carboxamide]	> 500 nM
O=C(NO)c1ccc2c(c1)CC[C@]1(CCN(Cc3ccc(Cl)cc3)C1=O)C2 [Compound I-55, (R)-1′-(4-chlorobenzyl)-N-hydroxy-2′-oxo-3,4-dihydro-1H-spiro[naphthalene-2,3′-pyrrolidine]-6-carboxamide]	≤ 100 nM
COc1cccc(N2CC[C@@]3(CCc4cc(C(=O)NO)ccc4C3)C2=O)c1 [Compound I-158, (S)-N-hydroxy-1′-(3-methoxyphenyl)-2′-oxo-3,4-dihydro-1H-spiro[naphthalene-2,3′-pyrrolidine]-6-carboxamide]	≤ 100 nM
O=C(NO)c1ccc2c(c1)CCC1(CCN(CC3CCCCC3)C1=O)C2 (stereo not shown) [Compound I-7, 1′-(cyclohexylmethyl)-N-hydroxy-2′-oxo-3,4-dihydro-1H-spiro[naphthalene-2,3′-pyrrolidine]-6-carboxamide]	100 to 500 nM
O=C(NO)c1ccc2c(c1)CC[C@@]1(CCN(Cc3ccccc3Cl)C1=O)C2 [Compound I-68, (S)-1′-(2-chlorobenzyl)-N-hydroxy-2′-oxo-3,4-dihydro-1H-spiro[naphthalene-2,3′-pyrrolidine]-6-carboxamide]	100 to 500 nM
O=C(NO)c1ccc2c(c1)CC[C@]1(CCCN(C3CCCC3)C1=O)C2 [Compound I-200, (S)-1′-cyclopentyl-N-hydroxy-2′-oxo-3,4-dihydro-1H-spiro[naphthalene-2,3′-piperidine]-6-carboxamide]	≤ 100 nM
O=C(NO)c1ccc2c(c1)CC[C@]1(CC(=O)N(CC3CCC3)C1)C2 (single isomer, unassigned) [Compound I-205]	≤ 100 nM
O=C(NO)c1ccc2c(c1)CCC1(CC(=O)N(c3cccnc3)C1)C2 (single isomer, unassigned) [Compound I-221]	≤ 100 nM
O=C(NO)c1ccc2c(c1)CC[C@]1(CC(=O)N(c3ccccn3)C1)C2 [Compound I-229, (R)-N-hydroxy-5′-oxo-1′-(pyridin-2-yl)-3,4-dihydro-1H-spiro[naphthalene-2,3′-pyrrolidine]-6-carboxamide]	≤ 100 nM
O=C(NO)c1ccc2c(c1)CC[C@]1(CCN(Cc3ccccc3C(F)(F)F)C1=O)C2 [Compound I-39, (R)-N-hydroxy-2′-oxo-1′-(2-(trifluoromethyl)benzyl)-3,4-dihydro-1H-spiro[naphthalene-2,3′-pyrrolidine]-6-carboxamide]	≤ 100 nM
O=C(NO)c1ccc2c(c1)CCC1(CCCNC1=O)C2 (stereo not shown) [Compound I-177, N-hydroxy-2′-oxo-3,4-dihydro-1H-spiro[naphthalene-2,3′-piperidine]-6-carboxamide]	≤ 100 nM
COc1cc(N2CC[C@@]3(CCc4cc(C(=O)NO)ccc4C3)C2=O)ccc1F [Compound I-129, (2S)-1′-(4-fluoro-3-methoxyphenyl)-N-hydroxy-2′-oxo-3,4-dihydro-1H-spiro[naphthalene-2,3′-pyrrolidine]-6-carboxamide]	≤ 100 nM
COc1ccncc1N1CC[C@@]2(CCc3cc(C(=O)NO)ccc3C2)C1=O [Compound I-142, (S)-N-hydroxy-1′-(4-methoxypyridin-3-yl)-2′-oxo-3,4-dihydro-1H-spiro[naphthalene-2,3′-pyrrolidine]-6-carboxamide]	≤ 100 nM
O=C(NO)c1ccc2c(c1)CC[C@]1(CCNC1=O)C2 [Compound I-27, (R)-N-hydroxy-2′-oxo-3,4-dihydro-1H-spiro[naphthalene-2,3′-pyrrolidine]-6-carboxamide]	≤ 100 nM
